Laboratory results reported in the CheMixHub viscosity set.
± gives the uncertainty stated by the source.

Experiment: xn = mol fraction of the nth substance listed

COC(C)=O + Cc1ccc(C)cc1
viscosity [mPa·s], 101 kPa
Conditions | 298.15 K | 308.15 K
x1 = 0.0478 | 0.592 ± 0.005 | 0.521 ± 0.004
x1 = 0.1516 | 0.548 ± 0.005 | 0.49 ± 0.004
x1 = 0.2496 | 0.514 ± 0.004 | 0.465 ± 0.004
x1 = 0.3526 | 0.483 ± 0.004 | 0.442 ± 0.004
x1 = 0.4453 | 0.46 ± 0.004 | 0.423 ± 0.004
x1 = 0.492 | 0.449 ± 0.004 | 0.415 ± 0.004
x1 = 0.5525 | 0.437 ± 0.004 | 0.404 ± 0.004
x1 = 0.6515 | 0.42 ± 0.004 | 0.389 ± 0.004
x1 = 0.7506 | 0.406 ± 0.004 | 0.376 ± 0.004
x1 = 0.8511 | 0.395 ± 0.004 | 0.365 ± 0.004
x1 = 0.9428 | 0.388 ± 0.004 | 0.356 ± 0.004

COc1ccccc1N + CCC(C)O
viscosity [mPa·s], 101 kPa
Conditions | x1 = 0.1106 | x1 = 0.1844 | x1 = 0.2647 | x1 = 0.3523 | x1 = 0.4825 | x1 = 0.5919 | x1 = 0.6713 | x1 = 0.7566 | x1 = 0.8969
303.15 K | 2.843 ± 0.067 | 3.007 ± 0.07 | 3.188 ± 0.073 | 3.385 ± 0.078 | 3.681 ± 0.084 | 3.931 ± 0.089 | 4.114 ± 0.092 | 4.314 ± 0.097 | 4.656 ± 0.1
308.15 K | 2.398 ± 0.057 | 2.561 ± 0.06 | 2.739 ± 0.064 | 2.935 ± 0.068 | 3.229 ± 0.074 | 3.483 ± 0.079 | 3.671 ± 0.083 | 3.878 ± 0.087 | 4.233 ± 0.095
313.15 K | 2.083 ± 0.049 | 2.242 ± 0.053 | 2.413 ± 0.056 | 2.602 ± 0.06 | 2.891 ± 0.066 | 3.143 ± 0.072 | 3.331 ± 0.076 | 3.541 ± 0.08 | 3.906 ± 0.087
318.15 K | 1.788 ± 0.043 | 1.942 ± 0.046 | 2.107 ± 0.05 | 2.29 ± 0.054 | 2.572 ± 0.06 | 2.825 ± 0.065 | 3.017 ± 0.069 | 3.231 ± 0.073 | 3.6 ± 0.081

COCCOC + CCCCCCO
101 kPa
Conditions | viscosity [mPa·s]
293.15 K, x1 = 0.03644 | 4.556 ± 0.049
293.15 K, x1 = 0.07492 | 3.875 ± 0.041
293.15 K, x1 = 0.1757 | 2.656 ± 0.028
293.15 K, x1 = 0.2488 | 2.089 ± 0.022
293.15 K, x1 = 0.3376 | 1.607 ± 0.017
293.15 K, x1 = 0.4282 | 1.265 ± 0.013
293.15 K, x1 = 0.5085 | 1.055 ± 0.011
293.15 K, x1 = 0.5954 | 0.873 ± 0.009
293.15 K, x1 = 0.6767 | 0.743 ± 0.008
293.15 K, x1 = 0.7648 | 0.633 ± 0.007
293.15 K, x1 = 0.8067 | 0.59 ± 0.006
293.15 K, x1 = 0.8909 | 0.547 ± 0.006
293.15 K, x1 = 0.9608 | 0.506 ± 0.005
303.15 K, x1 = 0.03689 | 3.354 ± 0.036
303.15 K, x1 = 0.08234 | 2.83 ± 0.03
303.15 K, x1 = 0.1774 | 2.045 ± 0.022
303.15 K, x1 = 0.2433 | 1.681 ± 0.018
303.15 K, x1 = 0.3417 | 1.289 ± 0.014
303.15 K, x1 = 0.4228 | 1.068 ± 0.011
303.15 K, x1 = 0.5142 | 0.867 ± 0.009
303.15 K, x1 = 0.5898 | 0.744 ± 0.008
303.15 K, x1 = 0.6726 | 0.638 ± 0.007
303.15 K, x1 = 0.7604 | 0.55 ± 0.006
303.15 K, x1 = 0.8168 | 0.505 ± 0.005
303.15 K, x1 = 0.8829 | 0.478 ± 0.005
303.15 K, x1 = 0.9497 | 0.439 ± 0.005
313.15 K, x1 = 0.02681 | 2.68 ± 0.029
313.15 K, x1 = 0.04032 | 2.555 ± 0.027
313.15 K, x1 = 0.07518 | 2.269 ± 0.024
313.15 K, x1 = 0.1706 | 1.69 ± 0.018
313.15 K, x1 = 0.3414 | 1.091 ± 0.012
313.15 K, x1 = 0.4234 | 0.908 ± 0.01
313.15 K, x1 = 0.5104 | 0.758 ± 0.008
313.15 K, x1 = 0.5912 | 0.651 ± 0.007
313.15 K, x1 = 0.6717 | 0.565 ± 0.006
313.15 K, x1 = 0.7706 | 0.482 ± 0.005
313.15 K, x1 = 0.8138 | 0.467 ± 0.005
313.15 K, x1 = 0.8786 | 0.432 ± 0.005
313.15 K, x1 = 0.9463 | 0.397 ± 0.004

COc1ccccc1N + CCCC(C)=O
viscosity [mPa·s], 100 kPa
Conditions | x1 = 0.0932 | x1 = 0.1824 | x1 = 0.2643 | x1 = 0.3512 | x1 = 0.4494 | x1 = 0.5391 | x1 = 0.654 | x1 = 0.7787 | x1 = 0.8784
303.15 K | 0.887 ± 0.037 | 1.312 ± 0.054 | 1.695 ± 0.069 | 2.099 ± 0.085 | 2.548 ± 0.1 | 2.952 ± 0.12 | 3.46 ± 0.14 | 3.999 ± 0.16 | 4.421 ± 0.18
308.15 K | 0.858 ± 0.036 | 1.257 ± 0.052 | 1.616 ± 0.066 | 1.99 ± 0.081 | 2.406 ± 0.098 | 2.776 ± 0.11 | 3.245 ± 0.13 | 3.741 ± 0.15 | 4.128 ± 0.17
313.15 K | 0.829 ± 0.035 | 1.202 ± 0.049 | 1.537 ± 0.063 | 1.879 ± 0.077 | 2.262 ± 0.092 | 2.598 ± 0.11 | 3.028 ± 0.12 | 3.481 ± 0.14 | 3.832 ± 0.15

COC(C)=O + CCCCCCCC
298.15 K, 101.3 kPa
Conditions | viscosity [mPa·s]
x1 = 0.1268 | 0.4797 ± 0.0046
x1 = 0.2408 | 0.4518 ± 0.0044
x1 = 0.337 | 0.4361 ± 0.0043
x1 = 0.431 | 0.4213 ± 0.0042
x1 = 0.5066 | 0.4108 ± 0.0041
x1 = 0.5788 | 0.4021 ± 0.004
x1 = 0.644 | 0.3953 ± 0.004
x1 = 0.757 | 0.3849 ± 0.0039
x1 = 0.8528 | 0.3786 ± 0.0038
